Assay results from patent publication US12440471B2, “Compositions and methods for the treatment of bronchopulmonary dysplasia (BPD) and BPD-associated pulmonary hypertension” (AyuVis Research, Inc., priority 2021, dated 2025).

How the values were obtained:
[1] = tested on: hyperoxia-exposed BPD mouse model; assay: BPD mouse model: multiplex ELISA of blood serum cytokines; type: in vivo
Experimental: Multiplex ELISA. Lung lysate and blood plasma from control and AVR-48 treated group were used for Multiplex ELISA performed on 4 separate inflammatory panels of Meso Scale Discovery multispot assay system (MSD, Rockville, MD) to detect 2 chemokines (MIP-2, MCP-1) and 8 cytokines: IL-21, IP-10, IFNγ, IL-1(3, TNFα, IL-17, IL-10 and IL-6 following the manufacturer's instructions. Briefly, samples were diluted 1:1 in a total volume of 25 μl with the dilution buffer provided with MSD kit and incubated with the above labelling antibodies for 2 h, RT followed by washing with PB ST. The […] was detected using the MSD-specific luminometer.

TLR4 = biological target: T1, TLR4 (Homo sapiens, UniProt O00206); assay: TLR4 level in THP-1 human monocytic cells by ELISA; type: cell-based
T1 construct: Cell lysates were prepared, total protein was quantified and treated with different concentrations; host or cells: THP-1 cells stimulated with PMA for 48 h, then lysed
T1 sequence (O00206 24-839): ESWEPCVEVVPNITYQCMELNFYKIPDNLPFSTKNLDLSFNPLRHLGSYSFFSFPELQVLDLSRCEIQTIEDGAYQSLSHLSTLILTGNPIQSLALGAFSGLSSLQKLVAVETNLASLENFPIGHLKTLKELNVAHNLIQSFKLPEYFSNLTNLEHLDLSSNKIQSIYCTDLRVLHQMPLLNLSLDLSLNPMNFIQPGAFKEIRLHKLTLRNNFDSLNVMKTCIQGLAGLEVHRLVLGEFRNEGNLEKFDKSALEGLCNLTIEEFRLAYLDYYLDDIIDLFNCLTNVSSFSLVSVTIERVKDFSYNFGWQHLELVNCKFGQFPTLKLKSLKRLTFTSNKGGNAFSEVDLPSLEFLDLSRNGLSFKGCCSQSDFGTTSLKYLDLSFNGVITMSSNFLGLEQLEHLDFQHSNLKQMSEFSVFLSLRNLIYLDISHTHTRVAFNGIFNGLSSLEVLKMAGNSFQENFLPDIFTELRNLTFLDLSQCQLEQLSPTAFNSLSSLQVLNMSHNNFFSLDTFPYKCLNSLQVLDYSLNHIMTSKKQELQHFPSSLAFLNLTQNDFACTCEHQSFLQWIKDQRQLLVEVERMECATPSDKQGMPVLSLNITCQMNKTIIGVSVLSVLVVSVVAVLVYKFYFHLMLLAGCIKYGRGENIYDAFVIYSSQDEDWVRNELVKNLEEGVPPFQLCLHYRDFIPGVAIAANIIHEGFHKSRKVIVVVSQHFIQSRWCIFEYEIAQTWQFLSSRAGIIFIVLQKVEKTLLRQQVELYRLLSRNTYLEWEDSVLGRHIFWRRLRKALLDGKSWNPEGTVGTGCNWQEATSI

mice or rat pups = assay: Safety profile of AVR-48 in mice or rat pups (IV, SC, IN; MTD/NOAEL); type: in vivo
Experimental: Safety Profile of AVR-48. To assess the safety of AVR-48 (compound 8), two doses of intravenous (IV) slow bolus injections or subcutaneous (SC) injections or intranasal (IN) instillation were given to mice or rat pups (postnatal day 3-5 or P3-P5), >6 h apart. The total daily doses were up to 100 mg/kg/day IV, and up to 150 mg/kg/day SC, for 3 consecutive days. […] There was no change in any of the hematological or clinical chemistry parameters. Signs of discoloration, swelling, and macroscopic and microscopic signs of local irritation occurred at the site of administration in all treatment groups and were attributed to the administration vehicle (formulation of 10% DMSO, 20% Tetraglycol, and 20% PEG 400 in sterile water). […] Based on the parameters monitored in this study, the maximum tolerated dose (MTD) and no-observed-adverse-effect level (NOAEL) were considered to be 100 mg/kg/day via IV and 150 mg/kg/day via SC routes of dosing.
Animals. C57BL/6J mice were purchased from The Jackson Laboratory (Bar Harbor, ME, USA) and were maintained in a breeding colony at Drexel University, Philadelphia, PA, USA. Animal procedures were performed in accordance with the NIH Guide for the Care and Use of Laboratory Animals and were approved by the Institutional Animal Care and Use Committee (IACUC) of Drexel University Philadelphia, PA (Protocol No. 20706). Neonatal rat pups born from female pregnant Sprague Dawley Crl:CD (SD) rats (Charles River Laboratories, St-Constant, QC, Canada) were used for the toxicology and PK studies to evaluate safety, determine the maximum tolerated dose (MTD) and the PK profile of AVR-48. A minimum 6-day acclimation period was allowed between receipt of the animals and the start of treatment to accustom the rats to the laboratory environment. All rat studies were approved by the IACUC of ITR Laboratories, Canada (Protocol No. 74691).
Formulation of AVR-48 for efficacy and toxicokinetic studies. For the mouse dose response efficacy studies, AVR-48 was reconstituted in 0.9% sterile normal saline to give a final dose concentration of […] as a colorless solution, and injected IP (30 μl) on P2 and P4. The PLGA encapsulated AVR-48 or the GFP-tagged analog was resuspended in deionized sterile water to make a nanosuspension with final dose concentration of 0.025, 0.05 and 0.11 mg/kg/drop. The surfactant Curosurf® (Cheisi Parma, Italy), available commercially, was delivered IN at a volume of 3 μl per nostril, on P2 and P4. For the toxicokinetic study of AVR-48 in rat pups, a formulation of 10% DMSO, 20% tetraglycol, 20% PEG 400, and 50% sterile water was made fresh before administration (Shah, Das et al. 2021).
Statistical Analysis. All statistical analyses were performed using Graph Pad Prism version 7.0 (GraphPad Software, San Diego, CA). The data are expressed as the mean±SEM with n=5 to 7 mice in each group. Groups were compared with the two-tailed unpaired t-test and one- or two-way analysis of variance (ANOVA), as appropriate. P<0.05 was considered statistically significant. For the toxicology and PK study, a generalized Analysis of Variance/Covariance (ANOVA/ANCOVA) test was performed on the numerical data (3 or more animals/groups) on the study as follows: An automatic transformation was used to analyze the data for homogeneity of variance using Levene's test. Parametric and non-parametric trends were analyzed using the Williams and the Shirley-Williams tests, respectively. Homogeneous data was analyzed using the ANOVA/ANCOVA, and the significance of intergroup differences between the control and test item-treated groups was analyzed using Dunnett's test. Heterogeneous data was analyzed using Kruskal-Wallis test and the significance of intergroup differences between the control and test item-treated groups was assessed using a nonparametric Dunnett's test. All data are reported as ±SEM. […]

[2] = tested on: adult respiratory distress syndrome/acute lung injury (ARDS/ALI) mouse model; conditions: cited from earlier work

CC(=O)N[C@@H]1C(Oc2ccc([N+](=O)[O-])cc2)OC(CO)C(O)C1O (stereo partly drawn) [AVR-48]
IFNγ ([1]; AVR-48 treated group): decreased to normal levels
IL-1β ([1]; AVR-48 treated group): decreased to normal levels
IP-10 ([1]; AVR-48 treated group): decreased to normal levels
MCP-1 ([1]; AVR-48 treated group): decreased to normal levels
TNFα ([1]; AVR-48 treated group): decreased to normal levels
IL-10 ([1]; BPD group): markedly increased
IL-17 ([1]; treated vs untreated BPD): no change
IL-21 ([1]; treated vs untreated BPD): no change
MIP-2 ([1]; treated vs untreated BPD): no change
EC50, binding to monocytes/macrophages possibly via surface receptor TLR4 (TLR4): sub nanomolar
DC50 (TLR4; THP-1 cells, after 48 h of treatment, ELISA, read-out: EC50, decrease of TLR4 level): 76 nM
toxic effects in the visceral organs (mice or rat pups; high dose of 100 mg/kg): did not have any toxic effects
hematological or clinical chemistry parameters (mice or rat pups; in vivo): no change
therapeutic index (mice or rat pups; juvenile mouse, minimum efficacious dose 5 mg/kg/day vs NOAEL 100 mg/kg/day): 20 fold
systemic gross observations at necropsy in the visceral organs (mice or rat pups; mouse and rat pups): no evidence of any AVR-48 related systemic gross observations
white blood cell count, lymphocyte count (females only), total bilirubin (SC groups only) (mice or rat pups; treated animals, considered non-adverse, not dose dependent): slight decrease
injection site findings (mice or rat pups; twice daily IV at 50 mg/kg/dose vs vehicle IV): higher incidence of dermal/subcutaneous hemorrhage at the injection site
tolerability of all doses (mice or rat pups; two doses/day >6 h apart, up to 100 mg/kg/day IV, up to 150 mg/kg/day SC, 3 consecutive days, P3-P5 pups): well tolerated
adverse clinical signs and body weight (mice or rat pups; up to 100 mg/kg/day IV, up to 150 mg/kg/day SC, 3 days): no observed adverse clinical signs and or any change in body weight
efficacy dose ([2]; IV, Shah, Das et al. 2021): 10 mg/kg/dose
severe lung inflammation ([2]; LPS-, hyperoxia- and CLP-induced ARDS in adult mice): decreases severe lung inflammation
